PubChem BioAssay (NCI)
Where “and” joins values, the source holds several entries; their conditions need not be identical. Equal values may be shown once.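 Compound exposure: 48 hours, 5 concentrations, 96-well plates. GI50 marks 50% less growth. The concentration for full growth arrest is given as TGI.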

Tests used:
Assay in all cases: growth of human tumour cells (NCI), 48 h
HCT-15 colon = tested on: HCT-15 colon
SK-MEL-2 melanoma = tested on: SK-MEL-2 melanoma
SN12C renal = tested on: SN12C renal
HL-60(TB) leukemia = tested on: HL-60(TB) leukemia
SNB-75 CNS = tested on: SNB-75 CNS
RXF 393 renal = tested on: RXF 393 renal
ACHN renal = tested on: ACHN renal
786-0 renal = tested on: 786-0 renal
KM20L2 colon = tested on: KM20L2 colon
NCI-H23 lung = tested on: NCI-H23 lung
U251 CNS = tested on: U251 CNS
A549 NSCLC = tested on: A549 NSCLC
SR leukemia = tested on: SR leukemia
M19-MEL melanoma = tested on: M19-MEL melanoma
COLO 205 colon = tested on: COLO 205 colon
UACC-62 melanoma = tested on: UACC-62 melanoma
HT29 colon = tested on: HT29 colon
SNB-78 CNS = tested on: SNB-78 CNS
OVCAR-4 ovarian = tested on: OVCAR-4 ovarian
SF-268 CNS = tested on: SF-268 CNS
HCC-2998 colon = tested on: HCC-2998 colon
HCT-116 colon = tested on: HCT-116 colon
RPMI-8226 leukemia = tested on: RPMI-8226 leukemia
DMS 114 small cell lung = tested on: DMS 114 small cell lung
MALME-3M melanoma = tested on: MALME-3M melanoma
M14 melanoma = tested on: M14 melanoma
CAKI-1 renal = tested on: CAKI-1 renal
HOP-92 NSCLC = tested on: HOP-92 NSCLC
RXF-631 renal = tested on: RXF-631 renal
NCI-H460 lung = tested on: NCI-H460 lung
SK-OV-3 ovarian = tested on: SK-OV-3 ovarian
OVCAR-8 ovarian = tested on: OVCAR-8 ovarian
SF-539 CNS = tested on: SF-539 CNS
HOP-62 NSCLC = tested on: HOP-62 NSCLC
LXFL 529 NSCLC = tested on: LXFL 529 NSCLC
SW-620 colon = tested on: SW-620 colon
OVCAR-3 ovarian = tested on: OVCAR-3 ovarian
IGROV1 ovarian = tested on: IGROV1 ovarian
DLD-1 colon = tested on: DLD-1 colon
NCI-H522 lung = tested on: NCI-H522 lung
A498 renal = tested on: A498 renal
OVCAR-5 ovarian = tested on: OVCAR-5 ovarian
DMS 273 small cell lung = tested on: DMS 273 small cell lung
NCI-H226 lung = tested on: NCI-H226 lung
HOP-18 NSCLC = tested on: HOP-18 NSCLC
MOLT-4 leukemia = tested on: MOLT-4 leukemia
UACC-257 melanoma = tested on: UACC-257 melanoma
SF-295 CNS = tested on: SF-295 CNS
TK-10 renal = tested on: TK-10 renal
SK-MEL-28 melanoma = tested on: SK-MEL-28 melanoma
UO-31 renal = tested on: UO-31 renal
LOX IMVI melanoma = tested on: LOX IMVI melanoma
SK-MEL-5 melanoma = tested on: SK-MEL-5 melanoma
EKVX NSCLC = tested on: EKVX NSCLC
MCF7 breast = tested on: MCF7 breast
PC-3 prostate = tested on: PC-3 prostate
DU-145 prostate = tested on: DU-145 prostate
T-47D breast = tested on: T-47D breast
SNB-19 CNS = tested on: SNB-19 CNS
MDA-MB-435 = tested on: MDA-MB-435
KM12 colon = tested on: KM12 colon
BT-549 breast = tested on: BT-549 breast
NCI/ADR-RES ovarian = tested on: NCI/ADR-RES ovarian
K-562 leukemia = tested on: K-562 leukemia
MDA-MB-231 breast = tested on: MDA-MB-231 breast
HS 578T breast = tested on: HS 578T breast
MDA-N = tested on: MDA-N
XF 498 CNS = tested on: XF 498 CNS
CCRF-CEM leukemia = tested on: CCRF-CEM leukemia

SMILES: COC(=O)C1=CC2C=CC(C1C(=O)OC)C1C(C(=O)OC)=C(C(=O)OC)C(C(=O)OC)=C(C(=O)OC)C21OC (stereo not drawn)
- TGI (HCT-15 colon): > 100 µM
- TGI (SK-MEL-2 melanoma): > 100 µM
- TGI (SN12C renal): > 100 µM
- TGI (HL-60(TB) leukemia): > 100 µM
- TGI (SNB-75 CNS): > 100 µM
- TGI (RXF 393 renal): > 100 µM
- TGI (ACHN renal): > 100 µM
- TGI (786-0 renal): > 100 µM
- TGI (KM20L2 colon): > 100 µM
- TGI (NCI-H23 lung): > 100 µM
- TGI (U251 CNS): > 100 µM
- TGI (A549 NSCLC): > 100 µM
- TGI (SR leukemia): > 100 µM
- TGI (M19-MEL melanoma): > 100 µM
- TGI (COLO 205 colon): > 100 µM
- TGI (UACC-62 melanoma): > 100 µM
- TGI (HT29 colon): > 100 µM
- TGI (SNB-78 CNS): > 100 µM
- TGI (OVCAR-4 ovarian): > 100 µM
- TGI (SF-268 CNS): > 100 µM
- TGI (HCC-2998 colon): > 100 µM
- TGI (HCT-116 colon): > 100 µM
- TGI (RPMI-8226 leukemia): > 100 µM
- TGI (DMS 114 small cell lung): > 100 µM
- TGI (MALME-3M melanoma): > 100 µM
- TGI (M14 melanoma): > 100 µM
- TGI (CAKI-1 renal): > 100 µM
- TGI (HOP-92 NSCLC): > 100 µM
- TGI (RXF-631 renal): > 100 µM
- TGI (NCI-H460 lung): > 100 µM
- TGI (SK-OV-3 ovarian): > 100 µM
- TGI (OVCAR-8 ovarian): > 100 µM
- TGI (SF-539 CNS): > 100 µM
- TGI (HOP-62 NSCLC): > 100 µM
- TGI (LXFL 529 NSCLC): > 100 µM
- TGI (SW-620 colon): > 100 µM
- TGI (OVCAR-3 ovarian): > 100 µM
- TGI (IGROV1 ovarian): > 100 µM
- TGI (DLD-1 colon): > 100 µM
- TGI (NCI-H522 lung): > 100 µM
- TGI (A498 renal): > 100 µM
- TGI (OVCAR-5 ovarian): > 100 µM
- TGI (DMS 273 small cell lung): > 100 µM
- TGI (NCI-H226 lung): > 100 µM
- TGI (HOP-18 NSCLC): > 100 µM
- TGI (MOLT-4 leukemia): > 100 µM
- TGI (UACC-257 melanoma): > 100 µM
- TGI (SF-295 CNS): > 100 µM
- TGI (TK-10 renal): > 100 µM
- TGI (SK-MEL-28 melanoma): > 100 µM
- TGI (UO-31 renal): > 100 µM
- TGI (LOX IMVI melanoma): > 100 µM
- TGI (SK-MEL-5 melanoma): > 100 µM
- TGI (EKVX NSCLC): > 100 µM

SMILES: O=C1/C(=C/c2ccc(Cl)cc2)CNC/C1=C\c1ccc(Cl)cc1
- TGI (MCF7 breast): 21.2 µM
- TGI (HCT-15 colon): 2.6 µM
- TGI (PC-3 prostate): 21.2 µM
- GI50 (SK-MEL-2 melanoma): 4.92 µM and 14.5 µM
- TGI (SK-MEL-2 melanoma): 28.4 µM and 43.2 µM
- TGI (DU-145 prostate): 7.57 µM
- TGI (SN12C renal): 6.38 µM and 14.3 µM
- TGI (T-47D breast): 36.1 µM
- GI50 (HL-60(TB) leukemia): 2.42 µM and 9.41 µM
- TGI (SNB-75 CNS): 10.3 µM and > 29.5 µM
- GI50 (RXF 393 renal): 1.64 µM and 3.97 µM
- TGI (RXF 393 renal): 3 µM and 7.85 µM
- TGI (SNB-19 CNS): 3.14 µM and 11 µM
- TGI (ACHN renal): 4.17 µM and 7.08 µM
- TGI (MDA-MB-435): 13.7 µM
- TGI (786-0 renal): 4.69 µM and 2.77 µM
- TGI (NCI-H23 lung): 4.17 µM and 4.24 µM
- GI50 (U251 CNS): 0.502 µM
- TGI (U251 CNS): 3.67 µM and 1.78 µM
- TGI (KM12 colon): 3.07 µM
- TGI (A549 NSCLC): > 100 µM and 27.4 µM
- TGI (SR leukemia): > 100 µM
- TGI (M19-MEL melanoma): 4.81 µM
- GI50 (COLO 205 colon): 2.61 µM
- TGI (COLO 205 colon): 4.25 µM and 8.35 µM
- TGI (UACC-62 melanoma): > 19.9 µM
- GI50 (HT29 colon): 0.254 µM and 1.28 µM
- TGI (HT29 colon): 0.697 µM and 3.38 µM
- TGI (SNB-78 CNS): 12.1 µM
- TGI (BT-549 breast): 8.41 µM
- GI50 (OVCAR-4 ovarian): 1.52 µM
- TGI (SF-268 CNS): 3.77 µM
- TGI (HCC-2998 colon): 4 µM and 3.36 µM
- TGI (HCT-116 colon): 3.07 µM and 3.85 µM
- TGI (RPMI-8226 leukemia): 0.722 µM
- TGI (NCI/ADR-RES ovarian): 9.61 µM
- TGI (MALME-3M melanoma): 20.5 µM and 16.8 µM
- TGI (M14 melanoma): 8.7 µM
- TGI (CAKI-1 renal): 5.98 µM and 3.82 µM
- TGI (HOP-92 NSCLC): > 26.2 µM
- TGI (RXF-631 renal): 12.5 µM
- TGI (SK-OV-3 ovarian): > 100 µM
- GI50 (K-562 leukemia): 0.551 µM and 1.37 µM
- TGI (K-562 leukemia): 17.3 µM and > 100 µM
- TGI (SF-539 CNS): 3.2 µM and 4.11 µM
- TGI (MDA-MB-231 breast): > 100 µM
- TGI (HOP-62 NSCLC): 12.5 µM and 7.03 µM
- TGI (LXFL 529 NSCLC): 2.4 µM
- GI50 (SW-620 colon): 0.381 µM
- TGI (OVCAR-3 ovarian): 4.87 µM and 4.9 µM
- TGI (IGROV1 ovarian): 4.15 µM and 3.49 µM
- TGI (DLD-1 colon): 6.78 µM
- TGI (NCI-H522 lung): 4.4 µM and 4.75 µM
- TGI (A498 renal): 5.01 µM and 25.6 µM
- TGI (OVCAR-5 ovarian): 13.4 µM
- TGI (DMS 273 small cell lung): 5.78 µM
- TGI (HS 578T breast): > 41.7 µM
- TGI (HOP-18 NSCLC): 18 µM
- TGI (MDA-N): 16.1 µM
- GI50 (UACC-257 melanoma): 1.78 µM and 7.7 µM
- GI50 (SF-295 CNS): 0.532 µM and 2.26 µM
- TGI (SF-295 CNS): 4.59 µM and 5.8 µM
- TGI (TK-10 renal): 25.9 µM and 12.3 µM
- GI50 (SK-MEL-28 melanoma): 1.3 µM
- TGI (SK-MEL-28 melanoma): 3.74 µM and 2.96 µM
- GI50 (UO-31 renal): 1.62 µM and 3.48 µM
- TGI (UO-31 renal): 2.98 µM and 6.5 µM
- TGI (XF 498 CNS): 7.28 µM
- TGI (LOX IMVI melanoma): 4.02 µM
- GI50 (CCRF-CEM leukemia): 0.596 µM and 1.32 µM
- TGI (CCRF-CEM leukemia): 10.3 µM and > 100 µM
- TGI (SK-MEL-5 melanoma): 22.1 µM and 11.3 µM
- GI50 (EKVX NSCLC): 5.74 µM and 2.29 µM
- TGI (EKVX NSCLC): 21.2 µM and 6.75 µM
